Reference: the supplement of paper PMC11061612

What was measured:
Test in all cases: combination Emax (second highest fraction inhibited in the dose matrix, 72 h); higher = more inhibition; extreme values may be limits of the assay
[1] = system: ES-2 (Ovarian Carcinoma)
Method in brief: (§1)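 Bliss excess equals the observed combination effect minus the expected value EA + EB − EA·EB, where EA and EB are the effects of each agent alone. Combination Emax is the second-highest inhibition within the matrix. Inhibition was scaled from CellTiter-Glo 2.0 luminescence, with 0 set by vehicle wells and 1 by blank wells, after 72 hours of two-drug dosing of cells plated in 1536-well plates.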

[2] = system: FLO-1 (Esophageal Adenocarcinoma)
Method in brief: as §1

[3] = system: HTC-C3 (Thyroid Gland Carcinoma)
Method in brief: as §1

[4] = system: HuO-3N1 (Osteosarcoma)
Method in brief: as §1

[5] = system: JHH-1 (Hepatocellular Carcinoma)
Method in brief: as §1

[6] = system: KYM-1 (Rhabdomyosarcoma)
Method in brief: as §1

[7] = system: LAMA-84 (Chronic Myelogenous Leukemia)
Method in brief: as §1

[8] = system: NCI-H1623 (Lung Adenocarcinoma)
Method in brief: as §1

[9] = system: NCI-H196 (Small Cell Lung Carcinoma)
Method in brief: as §1

[10] = system: NCI-H810 (Non-Small Cell Lung Carcinoma)
Method in brief: as §1

[11] = system: NKM-1 (Acute Myeloid Leukemia)
Method in brief: as §1

[12] = system: OCI-AML5 (Acute Myeloid Leukemia)
Method in brief: as §1

[13] = system: OVTOKO (Ovarian Carcinoma)
Method in brief: as §1

[14] = system: PANC-02-03 (Pancreatic Carcinoma)
Method in brief: as §1

[15] = system: PC-14 (Lung Adenocarcinoma)
Method in brief: as §1

[16] = system: RL95-2 (Endometrial Carcinoma)
Method in brief: as §1

[17] = system: RPMI-8866 (Chronic Myelogenous Leukemia)
Method in brief: as §1

[18] = system: SK-MM-2 (Plasma Cell Myeloma)
Method in brief: as §1

[19] = system: SNU-175 (Colorectal Carcinoma)
Method in brief: as §1

[20] = system: SW684 (Other Solid Carcinomas)
Method in brief: as §1

SMILES	combination Emax [1]	combination Emax [2]	combination Emax [3]	combination Emax [4]	combination Emax [5]	combination Emax [6]	combination Emax [7]	combination Emax [8]	combination Emax [9]	combination Emax [10]	combination Emax [11]	combination Emax [12]	combination Emax [13]	combination Emax [14]	combination Emax [15]	combination Emax [16]	combination Emax [17]	combination Emax [18]	combination Emax [19]	combination Emax [20]
COc1cccc(OCCCN)c1-c1cc(Nc2cnc(C#N)cn2)n[nH]1 [Prexasertib] + C=CCn1c(=O)c2cnc(Nc3ccc(N4CCN(C)CC4)cc3)nc2n1-c1cccc(C(C)(C)O)n1 [AZD1775] (first compound max 1 µM, partner max 1 µM)	0.844	0.94	0.911	0.756	0.656	0.966	0.992	0.841	0.723	0.981	0.956	1	0.606	0.662	0.932	0.957	1	0.723	0.744	0.598
Cc1nc(Nc2ncc(C(=O)Nc3c(C)cccc3Cl)s2)cc(N2CCN(CCO)CC2)n1 [Dasatinib] + CC(=O)Nc1cccc(-n2c(=O)n(C3CC3)c(=O)c3c(Nc4ccc(I)cc4F)n(C)c(=O)c(C)c32)c1 [Trametinib] (first compound max 2 µM, 7x7, partner max 1 µM)	0.86	0.966	0.906	0.493	0.806	0.401	1	0.576	0.103	0.103	0.899	0.81	0.748	0.836	1	0.405	0.556	0.123	0.425	0.609
Cc1c2c(nn1C)CSCc1cc(n(C)n1)CSc1cc(c3ccccc3c1)OCCCc1c(C(=O)O)n(C)c3c-2c(Cl)ccc13 [AZD5991] + C1CN(CCC1(C(=O)N[C@@H](CCO)C2=CC=C(C=C2)Cl)N)C3=NC=NC4=C3C=CN4 [Capivasertib] (first compound max 1 µM, 7x7, partner max 3 µM)	0.196	0.347	0.179	0.881	0.373	0.466	0.189	1	0.196	0.286	0.999	1	0.367	0.179	0.26	1	0.52	0.325	0.492	0.402
CN(C)CCCOc1ccc(-c2ccc3ncc4c(c3c2)n(C2CCOCC2)c(=O)n4C)cn1 [AZD0156] + CCN(CCO)CCCOc1ccc2c(Nc3cc(CC(=O)Nc4cccc(F)c4)[nH]n3)ncnc2c1 [AZD2811] (first compound max 1 µM, 7x7, partner max 1 µM)	0.167	0.267	0.0862	0.15	0.108	0.0599	0.296	0.0312	0.0373	0.542	0.473	0.963	0.113	0.163	0.202	0.557	0.61	0.248	0.604	0.154
CS(=O)(=O)CCNCc1ccc(-c2ccc3ncnc(Nc4ccc(OCc5cccc(F)c5)c(Cl)c4)c3c2)o1 [Lapatinib] + C[C@@H](Oc1cc(-c2cnn(C3CCNCC3)c2)cnc1N)c1c(Cl)ccc(F)c1Cl [Crizotinib] (first compound max 10 µM, 7x7, partner max 10 µM)	0.921	0.881	0.956	0.876	0.952	0.971	1	0.987	0.19	0.412	0.965	0.988	0.902	0.735	1	0.934	0.884	0.43	0.917	0.523
Cn1cnc2c(F)c(Nc3ccc(Br)cc3Cl)c(C(=O)NOCCO)cc21 [Selumetinib] + C[C@@H]1COCCN1C2=NC(=NC(=C2)C3(CC3)[S@](=N)(=O)C)C4=C5C=CNC5=NC=C4 [AZD6738] (first compound max 10 µM, 7x7, partner max 10 µM)	0.714	0.635	0.75	0.22	0.436	0.899	0.992	0.771	0.227	0.414	0.796	1	0.404	0.566	0.829	0.772	0.943	0.23	0.718	0.265
CC(=O)Nc1cccc(-n2c(=O)n(C3CC3)c(=O)c3c(Nc4ccc(I)cc4F)n(C)c(=O)c(C)c32)c1 [Trametinib] + Cc1nc(-c2cn3c(n2)-c2ccc(-c4cnn(C(C)(C)C(N)=O)c4)cc2OCC3)n(C(C)C)n1 [Taselisib] (first compound max 1 µM, 7x7, partner max 10 µM)	0.725	0.665	0.744	0.461	1	0.4	1	1	0.376	0.121	1	1	0.795	0.939	1	0.588	0.71	0.43	0.627	0.929
